Read-outs that look alike come from different tables or passages of the source.
Tests used:
T-47D [1] = test: Inhibition of cell proliferation (GI50), CellTiter 96 AQueous One, T-47D cells; type: cell-based; details: Homo sapiens, T47D, 48 h incubation, read-out: GI50 (dose for 50% inhibition of cell proliferation)
Procedure: (§1) T-47D and MX1 cells were grown and harvested as in Example 39. An aliquot of 90 μL of cells (2.2×10^4 cells/mL) was added to a well of a 96-well microtiter plate containing 10 μl of a 10% DMSO in RPMI-1640 media solution containing 1 nM to 100 μM of N-(2-methylphenyl)-9-oxo-9H-fluorene-1-carboxamide (0.1 nM to 10 μM final) or other test compound. An aliquot of 90 μL of cells was added to a well of a 96-well microtiter plate containing 10 μL of a 10% DMSO in RPMI-1640 media solution without compound as the control sample for maximal cell proliferation (AMax). The samples were mixed by agitation and then incubated at 37° C. for 48 h in a 5% CO2-95% humidity incubator. After incubation, the samples were removed from the incubator and 20 μL of CellTiter 96 AQUEOUS One Solution Cell Proliferation™ reagent (Promega) was added. The samples were mixed by agitation and incubated at 37° C. for 2-4 h in a 5% CO2-95% humidity incubator. Using an absorbance plate reader (Model 1420 Wallac Instruments), an initial reading (T=0) was made about 1-2 min after addition of the solution, employing absorbance at 490 nm. This determines the possible background absorbance of the test compounds. No absorbance for N-(2-methylphenyl)-9-oxo-9H-fluorene-1-carboxamide was found at 490 nm. After the 2-4 h incubation, the samples were read for absorbance as above (ATest).
(§2) Baseline for GI50 (dose for 50% inhibition of cell proliferation) of initial cell numbers were determined by adding an aliquot of 90 μL of cells or 90 μL of media, respectively, to wells of a 96-well microtiter plate containing 10 μL of a 10% DMSO in RPMI-1640 media solution. The samples were mixed by agitation and then incubated at 37° C. for 0.5 h in a 5% CO2-95% humidity incubator. After incubation, the samples were removed from the incubator and 20 μL of CellTiter 96 AQUEOUS One Solution Cell Proliferation™ reagent (Promega) was added. The samples were mixed by agitation and incubated at 37° C. for 2-4 h in a 5% CO2-95% humidity incubator. Absorbance was read as above, (AStart) defining absorbance for initial cell number used as baseline in GI50 determinations.
(§3) GI50 (dose for 50% inhibition of cell proliferation) is the concentration where [(ATest−Astart)/(AMax−Astart)]=0.5.

T-47D [2] = test: Caspase cascade activation assay (Ac-DEVD-R110 fluorogenic substrate) in T-47D cells; type: cell-based, Human; details: 24 h incubation; for Caspase activity (Ratio): ratio of net RFU (T=3 h) of test compound to control, 0.16 to 10 μM final; for EC50: sigmoidal dose-response, read-out: Caspase potency EC50
Procedure: Human breast cancer cell lines T-47D was grown according to media component mixtures designated by American Type Culture Collection+10% FCS (Invitrogen Corporation), in a 5% CO2-95% humidity incubator at 37° C. T-47D and ZR-75-1 cells were maintained at a cell density between 30 and 80% confluency and for HL-60 at a cell density of 0.1 to 0.6×10^6 cells/mL. Cells were harvested at 600×g and resuspended at 0.65×10^6 cells/mL into appropriate media+10% FCS. An aliquot of 45 μL of cells was added to a well of a 96-well microtiter plate containing 5 μL of a 10% DMSO in RPMI-1640 media solution containing 1.6 to 100 μM of N-(2-methylphenyl)-9-oxo-9H-fluorene-1-carboxamide or other test compound (0.16 to 10 μM final). An aliquot of 45 μL of cells was added to a well of a 96-well microtiter plate containing 5 μL of a 10% DMSO in RPMI-1640 media solution without test compound as the control sample. The samples were mixed by agitation and then incubated at 37° C. for 24 h in a 5% CO2-95% humidity incubator. After incubation, the samples were removed from the incubator and 50 μL of a solution containing 20 μM of N—(Ac-DEVD)-N′-ethoxycarbonyl-R110 fluorogenic substrate (SEQ ID NO:1) (Cytovia, Inc.; U.S. Pat. No. 6,335,429), 20% sucrose (Sigma), 20 mM DTT (Sigma), 200 mM NaCl (Sigma), 40 mM Na PIPES buffer pH 7.2 (Sigma), and 500 μg/mL lysolecithin (Calbiochem) was added. The samples were mixed by agitation and incubated at room temperature. Using a fluorescent plate reader (Model 1420 Wallac Instruments), an initial reading (T=0) was made about 1-2 min after addition of the substrate solution, employing excitation at 485 nm and emission at 530 nm, to determine the background fluorescence of the control sample. After about 3 h of incubation, the samples were read for fluorescence as above (T=3 h).
The Relative Fluorescence Unit values (RFU) were used to calculate the sample readings as follows: RFU(T=3h)−Control RFU(T=0)=Net RFU(T=3h)
The activity of caspase cascade activation was determined by the ratio of the net RFU value for N-(2-methylphenyl)-9-oxo-9H-fluorene-1-carboxamide and other test compounds to that of control samples. The EC50 (nM) was determined by a sigmoidal dose-response calculation (Prism 2.0, GraphPad Software Inc.).

MX1 = test: Inhibition of cell proliferation (GI50), CellTiter 96 AQueous One, MX1 cells; type: cell-based; details: Homo sapiens, 48 h incubation, read-out: GI50 (dose for 50% inhibition of cell proliferation)
Procedure: as §1, §2, §3

Structure (SMILES)	GI50 (T-47D [1]) [nM]	EC50 (T-47D [2]; Homo sapiens, T47D, 24 h) [nM]	melting point [°C]	EC50 (T-47D [2]) [nM]	Caspase activity (Ratio) (T-47D [2])	GI50 (MX1) [nM]
COc1ccccc1NC(=O)c1cccc2c1C(=O)c1ccccc1-2 [Example 15, N-(2-Methoxyphenyl)-9-oxo-9H-fluorene-1-carboxamide]	600	577	–	–	6.6	2000
CN(C)c1ccccc1NC(=O)c1cccc2c1C(=O)c1ccccc1-2 [Example 10, N-(2-Dimethylaminophenyl)-9-oxo-9H-fluorene-1-carboxamide]	665	1540	152 to 153	–	8.0	736
[N-]=[N+]=Nc1ccccc1NC(=O)c1cccc2c1C(=O)c1ccccc1-2 [Example 27, N-(2-Azido-phenyl)-9-oxo-9H-fluorene-1-carboxamide]	45	1400	–	–	4.0	90
[N-]=[N+]=Nc1ccc2c(c1)C(=O)c1c(C(=O)Nc3ccccc3-n3cccn3)cccc1-2 [Example 37, 7-Azido-N-(2-(1H-pyrazol-1-yl)phenyl)-9-oxo-9H-fluorene-1-carboxamide]	415	681	–	–	3.0	200
CN(C(=O)c1cccc2c1C(=O)c1ccccc1-2)c1ccccc1-n1cccn1 [Example 28, N-Methyl-N-(2-(1H-pyrazol-1-yl)phenyl)-9-oxo-9H-fluorene-1-carboxamide]	> 10000	> 10000	–	–	1.2	> 10000
Cc1ccccc1NC(=O)c1cccc2c1Cc1ccccc1-2 [Example 13, N-(2-Methylphenyl)-9H-fluorene-1-carboxamide]	5040	1100	–	–	6.0	6000
O=C(Nc1ccccc1-n1cccn1)c1cccc2c1Cc1ccccc1-2 [Example 12, N-(2-(1H-Pyrazol-1-yl)-phenyl)-9H-fluorene-1-carboxamide]	–	1580	179 to 180	–	8.9	–
Cc1ccc(NC(=O)c2cccc3c2C(=O)c2ccccc2-3)cc1 [N-(4-Methylphenyl)-9-oxo-9H-fluorene-1-carboxamide]	–	> 10000	–	–	1.4	–

Second part, led by results:

GI50 (T-47D [1]) [nM]	EC50 (T-47D [2]; Homo sapiens, T47D, 24 h) [nM]	melting point [°C]	EC50 (T-47D [2]) [nM]	Structure (SMILES)	Caspase activity (Ratio) (T-47D [2])	GI50 (MX1) [nM]
166	231	–	–	O=C(Nc1ccccc1-n1cccn1)c1cccc2c1C(=O)c1cc([N+](=O)[O-])ccc1-2 [Example 29, 7-Nitro-N-(2-(1H-pyrazol-1-yl)phenyl)-9-oxo-9H-fluorene-1-carboxamide]	5.3	150
2470	1280	–	–	O=C(Nc1ccccc1-n1cccn1)c1cccc2sc3ccccc3c12 [Example 32, N-(2-(1H-Pyrazol-1-yl)phenyl)-dibenzothiophene-1-carboxamide]	2.7	4350
451	979	–	–	O=C(Nc1ccccc1-n1cccn1)c1cccc2c1C(=O)c1ccccc1-2 [Example 9, N-(2-(1H-Pyrazol-1-yl)-phenyl)-9-oxo-9H-fluorene-1-carboxamide]	7.7	1000
429	302	–	–	O=C(Nc1ccccc1-n1cc(Br)cn1)c1cccc2c1C(=O)c1cc([N+](=O)[O-])ccc1-2 [Example 38, N-(2-(4-Bromo-1H-pyrazol-1-yl)phenyl)-7-nitro-9-oxo-9H-fluorene-1-carboxamide]	8.0	315
146	570	–	–	Cc1ccccc1NC(=O)c1cccc2c1C(=O)c1ccccc1-2 [Example A, N-(2-Methylphenyl)-9-oxo-9H-fluorene-1-carboxamide]	11.2	549
233	–	–	697	CN(C)Cc1ccccc1NC(=O)c1cccc2c1C(=O)c1ccccc1-2 [Example 20, N-(2-Dimethylaminomethylphenyl)-9-oxo-9H-fluorene-1-carboxamide]	6.7	8000
–	> 10000	–	–	COc1ccc(NC(=O)c2cccc3c2C(=O)c2ccccc2-3)cc1 [N-(4-Methoxyphenyl)-9-oxo-9H-fluorene-1-carboxamide]	1.8	–
